In patent US5922554A, “Inhibition of cellular uptake of cholesterol” (The Regents of the University of California, priority 1996, dated 1999):

How the values were obtained:
[1] = system: fibroblast monolayers; test: Cellular cholesterol mass determined enzymatically; format: cell-based, human; settings: 2 mM NEM, 120 min, 37° C.; control 4.1 ± 0.3
Method: In most experiments, LDL was labeled directly with ^3 H-FC by exchange from albumin-agarose covalent complex essentially as previously described (Miida et al., Biochemistry, 29: 10469-10474 (1990)). Briefly, recrystallized human serum albumin (Sigma Chemical Co, St. Louis, Mo., USA) was covalently linked to CNBr-activated Sepharose 6B (Pharmacia). 1,2-^3 H-FC in ethanol (0.1-1.0 mCi, 10-20 μl/ml gel suspension) was added and the mixture incubated with gentle stirring for 60 mm at 37° C. The labeled suspension was centrifuged (500× g, 1 min) and the gel equilibrated (60 min, 37° C.) with unlabeled LDL prepared as described above. Finally the gel was removed by centrifugation, leaving labeled LDL in the supernatant. LDL total and FC mass was determined fluorimetrically with cholesterol oxidase (Heider & Boyett, J. Lipid Res. 19: 514-518 (1978)) in the presence or absence of cholesterol esterase. EC mass was obtained by difference. LDL ^3 H-radioactivity was measured by liquid scintillation spectrometry. FC specific activity in these experiments was 3×10^4 to 5×10^5 cpm μg^-1.
The FC and EC mass of cell monolayers was determined before and after incubation with lipoprotein as described above. Portions of the chloroform phase were analyzed for total and free cholesterol. […]
^a Increase in cellular cholesterol mass determined enzymatically ove

[2] = system: fibroblast monolayers; test: Influx/uptake of ^3 H-FC (free cholesterol) from labeled LDL (or plasma, HDL) into normal fibroblast monolayers; format: cell-based, human
[3] = system: fibroblast monolayers; test: D2O-Ficoll density gradient fractionation of ^3 H-FC labeled fibroblasts; format: cell-based, human; settings: clathrin fraction d 1.12 g ml^-1; NEM 2 mM
Method: Early endosomal vesicles were labeled with LDL-derived ^3 H-FC by a modification of procedures described by Woodman & Warren (1991) J. Cell Biol., 112:1133-1141. Fibroblast monolayers in 10 cm dishes were washed in ice-cold PBS. The cells were labeled by incubation (2 h, 4° C.) with ^3 H-FC LDL. The monolayers were washed in PBS and brought to 31° C. for 0-15 min. The cells were then quickly chilled on ice, and cold unlabeled LDL was added (15 min, 4° C.) to displace any remaining surface-bound labeled LDL and all subsequent steps were carried out at 0-4° C.
Cells from three 10 cm dishes were used for each gradient. Monolayers were washed with 140 mM sucrose, 0.5 mM MgCl2, 1 mM EGTA, 20 mM 2-[N-morpholino]ethanesulfonic acid (MES), 70 mM potassium acetate, pH 6.6 (`vesicle buffer`) (Woodman & Warren, supra.). The cells were scraped from the dishes. Dithiothreitol (1 mm) and protease inhibitors (PMSF, 200 μg ml^-1; benzamidine 0.5 mM; soybean trypsin inhibitor 10 μg ml^-1; leupeptin 1 μg ml^-1) were added. The cells were broken with a Dounce homogenizer (15 strokes) and the homogenate centrifuged at 500× g for 5 min. Ribonuclease A (50 μg ml^-1) was added. After 30 min a second centrifugation was carried out (7000× g, 30 min). Supernatant (~2 ml) was layered on a 10 ml continuous gradient of 2% Ficoll-9% D2 O to 20% Ficoll-90% D2 O in vesicle buffer containing 1 mM dithiothreitol. Centrifugation in a Beckman SW41 rotor was carried out at 80,000× g for 16 h. Fractions (~0.6 ml) were collected dropwise and the distribution of FC label determined. Because of slight variation in fraction size between gradients, data were normalized to 20 fractions for comparison between experiments. Solution density was determined gravimetrically using 100 μl portions of each fraction. The density of a given fraction was reproducible ±0.5% between experiments.
Fibroblast monolayers were incubated with ^3 H-FC LDL for 30 min at 31° C. to predominantly label the intermediate density vesicle fraction. Cell surface LDL was removed as described above. […]

[4] = system: fibroblast monolayers; test: Transfer of intracellular ^3 H-FC to the cell surface (cholesterol oxidase accessibility); format: cell-based, human
Method: This assay utilized the finding (see Example 1) that only FC in the caveolar fraction of the plasma membrane fraction was modified by cholesterol oxidase in unfixed fibroblast monolayers.
The rate at which intracellular LDL-derived ^3 H-FC became accessible at the cell surface was measured as follows. Cell monolayers were labeled with ^3 H-FC LDL under the conditions shown for each experiment. Unbound and adsorbed LDL were removed as described above. In some experiments metabolic inhibitors of different transport steps were then added for 30 min at 15° C. […] Cholesterol oxidase (Boehringer-Manheim, Indianapolis, Ind., USA) was added in PBS to a final concentration of 1 U ml^-1. Incubation was for 4 h at 0° C. The cells were washed with ice-cold PBS, and extracted with 0. 1N NAOH. Cell total lipid was extracted with chloroform-methanol (1:1 v/v). […] .
Fibroblast monolayers were prelabeled with FC-labeled LDL for 2 min at 31° C. Medium and surface-bound labeled LDL were removed as described above. The cells were incubated with inhibitors of intracellular transport for 30 min at 15° C. Movement of FC label to the cell surface remained negligible (FIG. 11).
^a Relative to rate in the absence of inhibitor. Values are expressed

[5] = system: fibroblast monolayers; test: Distribution of cell-associated LDL ^3 H-FC label by release with unlabeled lipoproteins/plasma; format: cell-based, human; settings: 2 mM NEM; 10 min, 37° C. with 80% v/v plasma-PBS; control 0.57 ± 0.03
Method: Label released by unlabeled LDL (open circles); label released by unlabeled HDL but not unlabeled LDL (closed triangles) and label released with neither LDL or HDL (closed circles) expressed as percent of total label released. LDL specific activity was […]. All fractions are defined in terms of label released by either unlabeled lipoprotein within 5 min of incubation at 37° C.
Cell monolayers equilibrated with 7% plasma-DMEM were first incubated with ^3 H-FC labeled LDL as described above. At intervals, dishes of cells were washed, then incubated with unlabeled LDL or HDL at their plasma concentrations. A fraction of cell-associated label was rapidly released; maximum recovery in the medium occurred within 10 min at 37° C. In FIG. 4, the proportions of cell label which were LDL-releasable, LDL-resistant but HDL-releasable, and resistant to both LDL and HDL are shown as a function of time.
^b Proportion of cell cholesterol label retained in the cells

[6] = system: vesicular transport; settings: Tageya et al.; cited from earlier work

CCN1C(=O)C=CC1=O [N-ethylmaleimide]
Δ total cholesterol [1]: 0.4 ± 0.2 μg dish^-1 | inhibition of LDL-FC pathway (summary, words) [2]: inhibited | effect on cellular uptake of LDL FC in first 10-15 min of incubation ([2]; 30 min preincubation, FIG. 8): no effect | IC (maximal) ([2]; Homo sapiens, Fibroblast, read-out: concentration for maximal inhibition): 2000 to 5000 µM | FC Influx ([2]; LDL-FC 60.2 μg ml^-1, 60 min, 37° C., 30 min preequilibration with inhibitor at: Na-azide 1 mM, NH4-vanadate 1 mM, NEM 2 mM, KNO3 50 mM, progesterone 30 μM, forskolin 30 μM, IBMX 100 μM, chloroquine 20 μM): 0.40 ± 0.01 µg | inhibition of uptake of free cholesterol from LDLs (summary) ([2]; NEM or KNO3, Example 1, FIG. 8): > 80% | effect on LDL FC uptake ([2]; Table 3 conditions): blocks selective uptake of FC from LDL | time to complete inhibition by NEM ([2]; cells prelabeled to equilibrium (24 h) with ^3 H-FC): ≤ 30 min | FC Influx, % (PBS only = 100.0) ([2]; same concentrations and conditions as Table 3 FC influx, 60 min): 30.0% | inhibition of uptake of ^3 H-FC from LDL on further incubation ([2]; time course, 30 min preincubation, after 10-15 min, FIG. 8 (5 mM NEM)): > 80% | FC label in density gradient [3]: no peak of FC label was present with clathrin at d 1.12 g ml^-1 | transport of intracellular ^3 H-FC to the cell surface/caveolae [4]: inhibited the return of FC to the cell surface, but less effectively than did nocodazole | % transfer of intracellular ^3 H-FC to the cell surface, relative to rate in absence of inhibitor ([4]; NEM 2 mM, KNO3 50 mM, nocodazole, brefeldin A, vinblastine 40 μM, pulse labeled 2 min 31° C., then 30 min 31° C.): 50 ± 3% | Lipoprotein-resistant label (proportion of cell cholesterol label retained) [5]: 0.24 ± 0.03 | concentration for maximal inhibition in assays of vesicular transport in vitro [6]: 1 mM
